Laboratory results: patent US20240392343A1, “METHODS TO SCREEN YEAST TO IDENTIFY XENOBIOTICS THAT TARGET PESTS, PATHOGENS AND PARASITES” (The Governing Council of the University of Toronto, priority 2023, published 2024)
Entries after “also recorded” stand apart in the source; their conditions may differ.

Experiments:
[1] = test system: cytochrome P450s in C. elegans and diverse PPN species; experiment: HPLC of cyproside-3 parent and metabolites in whole worms with pan-P450 inhibitor 1-ABT; format: in vivo
From the text: (§1) FIGS. A-A′″ show HPLC chromatograms with cyproside-3 (abbreviated cypros-3) unmodified parent molecule (P) and metabolite (M1-M5) peaks indicated. MP1 is a cyproside-3 metabolite uniquely produced in P. penetrans. Y-axis indicates absorbance wavelength in nm. FIGS. B-B′″ show quantification of unmodified cyproside-3 parent (P) and metabolite peaks from A-A′″. Error bars indicate SEM, p-values calculated using unpaired t-test. FIGS. C-C′″ show the proportion mobile worms relative to DMSO solvent controls after 72-hour exposure to 20 μM cyproside-3 (C. elegans) or 60 μM cyproside-3 (all other species). P-values calculated using unpaired t-test.
(§2) Using the pan-P450 inhibitor (1-ABT), cyproside-3's metabolism was inhibited in vivo (FIGS. 11A and 11B).

[2] = test system: C. elegans and diverse PPN species; experiment: Worm mobility after cyproside-3 exposure with 1-ABT; format: in vivo; settings: 72-hour exposure to 20 μM cyproside-3 (C. elegans) or 60 μM cyproside-3 (all other species)
From the text: as §1, §2

Mi-CYP4731A3 = experiment: HPLC analysis of lysates of yeast expressing CYP4731A3; format: in vitro ADME, Meloidogyne incognita; settings: lysates of yeast treated with 100 μM compound
From the text: (§3) Each data point corresponds to an individual yeast strain expressing a unique M. incognita CYP enzyme. The data point above the dotted line has a p-value <0.01, and corresponds to the strain expressing M. incognita CYP4731A3. […] Unmodified sel-A and metabolites M2 and M3 are indicated. […] AUC is the area under the curve for M2 and M3 combined, calculated at 260 nm. Error bars are SEM. The p-value was obtained from an unpaired one-tailed Student's t-test comparing the means of empty vector control and CYP4731A3 expressing yeast. M1 was not detectable.
Each data point corresponds to an individual yeast strain expressing a unique M. incognita P450 enzyme. The data point above the dotted line has a p-value <0.01 and corresponds to the strain expressing M. incognita CYP4731A3. […] Viability relative to untreated controls is indicated by the grey-coded scale. […] Peaks corresponding to the unmodified cyproside-3 and the three cyproside-3 metabolites visible using the HPLC-DAD system (M1, M2 and M3) are indicated. […] AUC is the area under the curve, error bars indicate SEM. The p-values were obtained from unpaired two-tailed Student's t-tests comparing the means of the empty vector control and CYP4731A3 expressing yeast. […]

CYP-35D1 = target: T1, CYP-35D1 (Caenorhabditis elegans, UniProt O45364); experiment: HPLC / LCMS analysis of cyproside-3 metabolites, CYP-35D1; format: in vitro ADME, C. elegans; settings: lysates of yeast after treatment with 100 μM cyproside-3
T1 construct: expressed in transfected cells; host or cells: Saccharomyces cerevisiae (yeast), expression vector vs empty vector
T1 sequence (O45364 1-499): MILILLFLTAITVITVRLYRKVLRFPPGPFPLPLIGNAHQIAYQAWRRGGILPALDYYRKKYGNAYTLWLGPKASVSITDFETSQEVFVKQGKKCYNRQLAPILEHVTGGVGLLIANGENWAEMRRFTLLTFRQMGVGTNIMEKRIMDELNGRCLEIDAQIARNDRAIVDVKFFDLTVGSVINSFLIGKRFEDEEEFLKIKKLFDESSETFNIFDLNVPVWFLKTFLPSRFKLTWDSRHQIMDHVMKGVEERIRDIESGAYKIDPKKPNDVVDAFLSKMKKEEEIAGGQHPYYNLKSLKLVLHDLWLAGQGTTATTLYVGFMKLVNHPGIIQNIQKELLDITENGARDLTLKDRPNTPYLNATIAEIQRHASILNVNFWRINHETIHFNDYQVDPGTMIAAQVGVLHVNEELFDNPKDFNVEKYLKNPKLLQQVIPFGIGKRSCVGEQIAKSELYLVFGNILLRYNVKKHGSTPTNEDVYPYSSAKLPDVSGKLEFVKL
From the text: (§4) In this condition cyproside-3 is not metabolized into a lethal product and yeast are viable. […] CYP-35D1 is capable of metabolizing cyproside-3 into an active metabolite which leads to reduced viability in the yeast. […] Viability relative to untreated controls is indicated by the gray coded scale. […] AUC is the area under the curve, error bars indicate SEM. The p-values were obtained from unpaired two-tailed Student's t-tests comparing the means of the empty vector control and CYP-35D1 expressing yeast. […] Peaks corresponding to the unmodified cyproside-3 and the three cyproside-3 metabolites visible using our HPLC-DAD system (M1, M2 and M3) are indicated.
Cytochrome P450 enzymes (CYPs) catalyze the S-oxidation of cyproside-3 which produces an electrophilic sulfoxide metabolite. This sulfoxide metabolite reacts with glutathione (GSH) and is further processed to γ-Glutamyl-Cysteine (γ-Glu-Cys), Cysteinylglycine (Cys-Gly) and cysteine (Cys) conjugates.

Meloidogyne incognita = experiment: Soil-based tomato root infection assay; format: in vivo; settings: 6 weeks of infection in soil drenched with chemical
From the text: Cyprosides 3-2, 3-3, and 3-4 are structural analogs of cyproside-3. […] All error bars represent SEM, p-values calculated using an unpaired t test vs. solvent controls. […] Cyprosides 3-7, 3-12, 3-25, and 3-26 are structural analogs of cyproside-3. The other data points represent negative (water, DMSO) and positive (fluopyram, tioxazafen) controls. All error bars represent SEM.
There were no significant adverse effects on plant growth by the cyproside-3s as evident by the resulting root mass (FIG. 12C).

C. elegans P450 CYP-35D1 = target: T2, C. elegans P450 CYP-35D1 (Caenorhabditis elegans, UniProt O45364); experiment: CYPce assay: viability of yeast expressing CYP-35D1 vs empty vector; format: cell-based; settings: yeast expressing CYP-35D1 vs empty vector yeast; dose-response
T2 construct: expressed in transfected cells; host or cells: Saccharomyces cerevisiae (yeast), expression vector vs empty vector
T2 sequence (O45364 1-499): T1 sequence (O45364 1-499)
From the text: as §4
CYPce (pronounced sip-sea) is an acronym for the heterologous expression of CYPs in S. cerevisiae for the purpose of identifying P450s that can bioactivate small molecules into lethal products that may or may not be reactive. […]
(§5) With that single strain, a library of small molecules are screened for those that can be bioconverted by the heterologously-expressed enzyme into a product that kills the cells expressing the enzyme. As set out herein, the growth of cells was measured, for example, by a variety of means, including optical density.

M. incognita CYP4731A3 = experiment: CYPce assay: yeast-based M. incognita CYP expression screen and dose-response; format: cell-based, Meloidogyne incognita; settings: 19 M. incognita CYP-expressing yeast strains vs empty vector, 50 μM in screen
From the text: as §3
Each data point corresponds to an individual yeast strain expressing a unique M. incognita P450 enzyme. The data point above the dotted line has a p-value <0.01 and corresponds to the strain expressing M. incognita CYP4731A3. […] Viability relative to untreated controls is indicated by the grey-coded scale. […] Peaks corresponding to the unmodified cyproside-3 and the three cyproside-3 metabolites visible using the HPLC-DAD system (M1, M2 and M3) are indicated. […] AUC is the area under the curve, error bars indicate SEM. […]
With that single strain, a library of small molecules are screened for those that can be bioconverted by the heterologously-expressed enzyme into a product that kills the cells expressing the enzyme. As set out herein, the growth of cells was measured, for example, by a variety of means, including optical density. […]

[3] = test system: diverse nematode species (non-parasitic and plant parasitic species); experiment: Dose-response analysis on diverse nematode species (FIG. 10); format: in vivo; settings: dose-response relative to solvent control
From the text: (§6) Dose-response analysis of cyproside-3 and tioxazafen on diverse nematode species and off-target systems including human cells (HEK293 and HepG2), fungi (Saccharomyces cerevisiae and Candida albicans) and plant beneficial rhizobacteria (Pseudomonas simiae WCS417 and Pseudomonas defensor WCS374). The activity of the compound relative to the solvent control in each assay is indicated by the gray coded scale.

[4] = test system: human cells (HEK293 and HepG2), fungi (Saccharomyces cerevisiae and Candida albicans) and plant beneficial rhizobacteria (Pseudomonas simiae WCS417 and …); experiment: Dose-response analysis on off-target systems (FIG. 10); format: cell-based; settings: HEK293, HepG2, S. cerevisiae, C. albicans, P. simiae WCS417, P. defensor WCS374; relative to solvent control
From the text: as §6

CYP-35C1 = format: in vitro ADME; settings: C. elegans
From the text: (§7) Viability relative to untreated controls is indicated by the gray coded scale. […] The p-values were obtained from unpaired two-tailed Student's t-tests comparing the means of the empty vector control and CYP-35C1 expressing yeast.
FIGS. 6A-C show mass spectrometry (MS) data for metabolite M1-M3 HPLC fractions and untreated control fractions, as well as MS/MS fragmentation data for selected masses. Structures of γ-glutamylcysteine (γ-Glu-Cys) (A), glutathione (B), and cysteine (C) conjugates of a selectivin-A (sel-A) electrophilic sulfoxide metabolite are shown, along with fragmentations that produce masses found in the MS/MS plots. […] S-oxidation produces an electrophilic sulfoxide metabolite that reacts with glutathione (GSH) either spontaneously or via glutathione-S-transferase (GST), and is likely further processed to 7-Glu-Cys and cysteine conjugates via phytochelatin synthase (PCS) and 7-glutamyl transferase (GGT), respectively. Cytochrome p450 enzymes (CYPs) likely mediate S-oxidation.

C. elegans P450 CYP-35C1 = experiment: CYPce assay: viability of yeast expressing CYP-35C1 vs empty vector; format: cell-based; settings: yeast expressing CYP-35C1 vs empty vector yeast; dose-response
From the text: as §7
CYPce (pronounced sip-sea) is an acronym for the heterologous expression of CYPs in S. cerevisiae for the purpose of identifying P450s that can bioactivate small molecules into lethal products that may or may not be reactive. The CYPce assay relies on culturing a single strain of yeast (S. cerevisiae) (or any convenient cell type in other embodiments) that expresses a single P450 enzyme (or any other small molecule modifying enzyme in other embodiments) from a single targeted organism (FIG. 2).
as §5

Nn1nnc2ccccc21 [Cyproside 1-ABT, reference compound]
effect of 1-ABT on cyproside-3's metabolism in vivo [1]: inhibited | effect of 1-ABT on cyproside-3's effects on the worms (mobility) [2]: inhibited cyproside-3's effects on the worms

CCSc1nnc(-c2ccc(Cl)cc2)o1 [cyproside-3, 2-(4-chlorophenyl)-5-(ethylthio)-1,3,4-oxadiazole]
metabolism by Mi-CYP4731A3 in yeast (HPLC) (Mi-CYP4731A3): metabolized by Mi-CYP4731A3 in yeast | metabolism by CYP-35D1 (HPLC) (CYP-35D1): metabolized by CYP-35D1 into a reactive product | control of root infection by M. incognita (eggs per milligram of tomato root tissue) (Meloidogyne incognita): demonstrated activity | yeast killing dependent on CYP-35D1 (C. elegans P450 CYP-35D1): killed yeast in a manner dependent on C. elegans P450 CYP-35D1 | yeast killing dependent on Mi-CYP4731A3 (M. incognita CYP4731A3): can kill yeast in a Mi-CYP4731A3-dependent manner | phylogenetic activity profile: activity on nematode species [3]: high selectivity for all nematode species tested; also recorded: broad-spectrum activity in plant-parasitic nematodes | activity against non-targeted cells and organisms [4]: little-to-no activity against non-targeted cells and organisms

Clc1ccc(-c2cn3ccsc3n2)cc1 [selectivin-A, 6-(4-chlorophenyl)imidazo[2,1-b]thiazole]
nature of product of metabolism by CYP-35C1 (LCMS and NMR) (CYP-35C1): metabolized by CYP-35C1 into a reactive lethal product | metabolism by CYP-35C1 in yeast (HPLC) (CYP-35C1; 100 μM): metabolized by CYP-35C1 in yeast | metabolism by Mi-CYP4731A3 in yeast (HPLC) (Mi-CYP4731A3): metabolized by Mi-CYP4731A3 in yeast | yeast killing dependent on CYP-35C1 (C. elegans P450 CYP-35C1): kills yeast in a manner dependent on the C. elegans P450 CYP-35C1 | yeast killing dependent on Mi-CYP4731A3 (M. incognita CYP4731A3): kills yeast in a Mi-CYP4731A3-dependent manner
